Test results reported in ChEMBL document CHEMBL4837215, “Application of cation-π interactions in enzyme-substrate binding: Design, synthesis, biological evaluation, and molecular dynamics insights of novel hydrophilic substrates for NQO1” (Eur J Med Chem, 2021).
In brackets after ≈: the same amount, converted by molar mass.

Test system: A549
Assay: Cytotoxicity against human A549 cells overexpressing NQO1 assessed as reduction in cell viability incubated for 72 hrs by MTT assay
Type: functional, cell-based
Details: A549, 72 h

`Cc1cc2c(cc1C)-c1oc(CN3CCC(N4CCCC4)CC3)c(C)c1C(=O)C2=O` and `Cc1cc2c(cc1C)-c1oc(CN3CCC(N4CCCCC4)CC3)c(C)c1C(=O)C2=O` are within 1.5-fold of each other in IC50: 8.7 µM for the first, 9.1 µM for the second.

`Cc1cc2c(cc1C)-c1oc(CN3CCN4CCCCC4C3)c(C)c1C(=O)C2=O` (stereo not given) and `Cc1cc2c(cc1C)-c1oc(CN3CCN4CCCC4C3)c(C)c1C(=O)C2=O` (stereo not given) are within 1.5-fold of each other in IC50: 4.5 µM for the first, 4.3 µM for the second.

Going from `Cc1cc2c(cc1C)-c1oc(CN(C)C)c(C)c1C(=O)C2=O` to `Cc1cc2c(cc1C)-c1oc(CN3CCN(CCO)CC3)c(C)c1C(=O)C2=O`, the IC50 falls from 15 µM to 3.1 µM (4.8-fold). The second is the more potent here.

`Cc1cc2c(cc1C)-c1oc(CN3CCC(N4CCN(C)CC4)CC3)c(C)c1C(=O)C2=O` and `Cc1cc2c(cc1C)-c1oc(CN3CCC(N4CCOCC4)CC3)c(C)c1C(=O)C2=O` are within 1.5-fold of each other in IC50: 6.8 µM for the first, 5.6 µM for the second.

Test system: not listed separately
Assay: Intrinsic solubility of the compound after 8 hrs by potentiometric titration method
Type: physicochemical
Details: read-out: Intrinsic_solubility

`Cc1cc2c(cc1C)-c1oc(CN3CCN(CCO)CC3)c(C)c1C(=O)C2=O` showed a solubility at 8 h of 61 µg/mL (≈ 159 µM).

Molecular target: NAD(P)H dehydrogenase [quinone] 1 (Homo sapiens) (UniProt P15559)
Sequence (P15559 whole entry): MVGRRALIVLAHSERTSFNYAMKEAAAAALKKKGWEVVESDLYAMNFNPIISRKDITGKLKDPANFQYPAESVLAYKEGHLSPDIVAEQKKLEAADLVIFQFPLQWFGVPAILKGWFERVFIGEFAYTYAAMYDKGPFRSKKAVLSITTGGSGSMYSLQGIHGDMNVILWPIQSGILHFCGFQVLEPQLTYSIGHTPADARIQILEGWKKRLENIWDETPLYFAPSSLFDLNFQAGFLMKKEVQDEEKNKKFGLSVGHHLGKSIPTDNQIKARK
Assay: Substrate activity at recombinant human NQO1 assessed as enzymatic reduction rate at 10 uM
Details: not given

Going from `Cc1cc2c(cc1C)-c1oc(CN3CCC(N4CCCC4)CC3)c(C)c1C(=O)C2=O` to `Cc1cc2c(cc1C)-c1oc(CN3CCC(N4CCCCC4)CC3)c(C)c1C(=O)C2=O`, the Activity falls from 848 µmol/min to 795 µmol/min.

Going from `Cc1cc2c(cc1C)-c1oc(CN3CCN4CCCCC4C3)c(C)c1C(=O)C2=O` (stereo not given) to `Cc1cc2c(cc1C)-c1oc(CN3CCN4CCCC4C3)c(C)c1C(=O)C2=O` (stereo not given), the Activity rises from 1030 µmol/min to 1070 µmol/min.

First: Cc1cc2c(cc1C)-c1oc(CN(C)C)c(C)c1C(=O)C2=O
Second: Cc1cc2c(cc1C)-c1oc(CN3CCN(CCO)CC3)c(C)c1C(=O)C2=O
The Activity of the first is lower: 704 µmol/min for the first, 1160 µmol/min for the second.

First: Cc1cc2c(cc1C)-c1oc(CN3CCC(N4CCN(C)CC4)CC3)c(C)c1C(=O)C2=O
Second: Cc1cc2c(cc1C)-c1oc(CN3CCC(N4CCOCC4)CC3)c(C)c1C(=O)C2=O
The Activity of the first is lower: 904 µmol/min for the first, 951 µmol/min for the second.

Test system: not listed separately
Assay: Solubility of the compound in pH 3 after 8 hrs by potentiometric titration method
Type: physicochemical
Details: buffer

`Cc1cc2c(cc1C)-c1oc(CN3CCN(CCO)CC3)c(C)c1C(=O)C2=O` showed a solubility at 8 h greater than 1000 µg/mL.

Test system: not listed separately
Assay: Lipophilicity, logD of the compound at pH 7.4 by potentiometric titration method
Type: physicochemical
Details: buffer

Molecule `Cc1cc2c(cc1C)-c1oc(CN3CCN(CCO)CC3)c(C)c1C(=O)C2=O` has a logD of 2.01.

Test system: not listed separately
Assay: Selectivity index, ratio of IC50 for NQO1-deficient human L02 cells to IC50 for human A549 cells overexpressing NQO1 incubated for 72 hrs by MTT assay
Details: not given

Compared with `Cc1cc2c(cc1C)-c1oc(CN3CCC(N4CCCC4)CC3)c(C)c1C(=O)C2=O`, `Cc1cc2c(cc1C)-c1oc(CN3CCC(N4CCCCC4)CC3)c(C)c1C(=O)C2=O` is higher in “Ratio IC50” value: 3.58 for the first, 4.45 for the second.

First: Cc1cc2c(cc1C)-c1oc(CN3CCN4CCCCC4C3)c(C)c1C(=O)C2=O (stereo not given)
Second: Cc1cc2c(cc1C)-c1oc(CN3CCN4CCCC4C3)c(C)c1C(=O)C2=O (stereo not given)
The “Ratio IC50” value of the first is lower: 7.02 for the first, 7.66 for the second.

Going from `Cc1cc2c(cc1C)-c1oc(CN(C)C)c(C)c1C(=O)C2=O` to `Cc1cc2c(cc1C)-c1oc(CN3CCN(CCO)CC3)c(C)c1C(=O)C2=O`, the “Ratio IC50” value rises from 3.12 to 11.56.

Going from `Cc1cc2c(cc1C)-c1oc(CN3CCC(N4CCN(C)CC4)CC3)c(C)c1C(=O)C2=O` to `Cc1cc2c(cc1C)-c1oc(CN3CCC(N4CCOCC4)CC3)c(C)c1C(=O)C2=O`, the “Ratio IC50” value rises from 4.38 to 5.16.

Test system: L02
Assay: Cytotoxicity against NQO1-deficient human L02 cells assessed as reduction in cell viability incubated for 72 hrs by MTT assay
Type: cell-based
Details: L02, 72 h

`Cc1cc2c(cc1C)-c1oc(CN3CCC(N4CCCC4)CC3)c(C)c1C(=O)C2=O` and `Cc1cc2c(cc1C)-c1oc(CN3CCC(N4CCCCC4)CC3)c(C)c1C(=O)C2=O` are within 1.5-fold of each other in IC50: 31.2 µM for the first, 40.5 µM for the second.

`Cc1cc2c(cc1C)-c1oc(CN3CCN4CCCCC4C3)c(C)c1C(=O)C2=O` (stereo not given) and `Cc1cc2c(cc1C)-c1oc(CN3CCN4CCCC4C3)c(C)c1C(=O)C2=O` (stereo not given) are within 1.5-fold of each other in IC50: 31.6 µM for the first, 32.9 µM for the second.

`Cc1cc2c(cc1C)-c1oc(CN(C)C)c(C)c1C(=O)C2=O` and `Cc1cc2c(cc1C)-c1oc(CN3CCN(CCO)CC3)c(C)c1C(=O)C2=O` are within 1.5-fold of each other in IC50: 46.9 µM for the first, 35.8 µM for the second.

`Cc1cc2c(cc1C)-c1oc(CN3CCC(N4CCN(C)CC4)CC3)c(C)c1C(=O)C2=O` and `Cc1cc2c(cc1C)-c1oc(CN3CCC(N4CCOCC4)CC3)c(C)c1C(=O)C2=O` are within 1.5-fold of each other in IC50: 29.8 µM for the first, 28.9 µM for the second.
